According to patent publication US20110312890A1, “ACETYLATED AMINO ACIDS AS ANTI-PLATELET AGENTS, NUTRITIONAL AND VITAMIN SUPPLEMENTS” (SIGNATURE R&D HOLDINGS, LLC, priority 2005, published 2011):
Values joined by “and” are separate entries in the source; they are usually repeats but may differ in a detail not shown here. Equal entries are not always repeated. Non-standard residues stand in square brackets, D forms with d. Residues, ends and D or L forms follow the SMILES beside them. ξ: configuration not given here. ξY = NC(Cc1ccc(O)cc1)C(=O)O; ξS = NC(CO)C(=O)O

What was measured:
platelet aggregation [1] = assay: Whole blood clotting time by capillary tube method in human volunteers; assay type: in vivo; settings: for Max % Increase in clotting time: versus time zero
Description: A Test Method was developed to determine clotting time to evaluate the anti, platelet aggregation effect of O-acetyl-L-Tyrosine (OAT) by employing capillary tube method in two human volunteers.
1. Dose Strength: Volunteer 1 (90 Kg) 1000 mg, Volunteer 2 (60 Kg) 350 mg of OAT
3. Route of Administration: Single exposure by […]. 4. Blank Control Self, time zero clotting time
600 mg of O-Acetyl-L-Serine-O-Acetyl-L-Tyrouine was administered to a single human volunteer who weighs 136 lbs and is […]. The procedure was conducted using the protocol of Example 2, except the drug administered was O-Acetyl-L-Serine-O-Acetyl-L-Tyrosine. The results are depicted in FIG. 3.

[2] = Stability followed by HPLC purity (time in solution, temperature of analysis); assay type: physicochemical; settings: for HPLC purity, same sample analyzed at 40 C: temperature of analysis 40 C; for HPLC purity, same sample analyzed at 10 C: temperature of analysis 10 C (Ex 3: pH 4.5)
Description: (§1) In addition, HPLC analysis of the products indicated faster degradation when determinations were made at higher temperatures (40 or 25° C. compared to 10 or 15° C.). The purity of the compounds of Ex 4 varied by as much as 20% when the analysis was performed at 25 and 10° C., respectively.
(§2) c. The material of Ex 3 as a zwitterion was recrystallized from aqueous 40% EtOH while heating at 70 C for approximately 20 minutes. […] In a solution of 8% acetonitrile/92% aqueous 0.05 mol buffer of KH2PO4 (pH 5). […] Temperature of the analyses greatly affected the outcome of the analyses.
(§3) f. Instability of the compound of Ex 4 in an aqueous solution as a zwitterion was observed when a recovery of an additional amount of the material from a large freeze-drying flask was attempted. Simple dissolution of a residual material on the walls with DI water followed by freeze-drying has decrease estimated by NMR purity from 95-96% to 87-88%. • g. […] The same sample analyzed at 25 C and 10 C had difference in purity 13-15%, e.g., either 78-80% or 93%.
(§4) Instability of the compound of Ex 5 in an aqueous solution as a zwitterion was observed while doing a purification of an additional amount of the material on C8 silica gel with water/acetonitrile as eluent. • j. The material of the compound of Ex 5 was decomposing faster during HPLC analysis when temperature of the thermostat was higher. The same sample analyzed at 40 C and 15 C had purity 97% or 99%, correspondingly. • k.

[3] = Stability in solution or solid state followed by NMR; assay type: physicochemical
Description: as §1
(§5) A sample of the compound of Ex 3 was tested in D2O with 1 drop of DCl added for a better solubility of the material. […] Stability of the compound of Ex 3 in an aqueous solution as a salt of tartaric acid is much greater. A 400-mg sample of the salt was attempted to recrystallize from 6 ml of boiling acetonitrile and 20 drops of water. The material crystallized as a zwitterion (not a tartrate) with minor traces of the decomposition. However, the recovery was 132 mg only.
as §3, §4

platelet aggregation [4] = assay: Clotting time by capillary tube method in Swiss Albino rats (anti platelet aggregation effect); assay type: in vivo; settings: for Clotting time: OAS study, 2 hours post dosing, HCl salt; for Clotting time / Clotting time in minutes, After 4 hrs of administration / Clotting time in minutes, After 24 hrs of administration: single oral gavage; for Significance of clotting times at all dose levels and between the dose levels (FIG. 1): rats, 10-100 mg/kg, average of 5 rats, P<0.5 [sic]; for Clotting time in minutes, After 4 hrs of administration / Clotting time in minutes, After 24 hrs of administration: OAT study
Description: A Test Method was developed to determine clotting time to evaluate the anti platelet aggregation effect of O-acetyl-L-Serine HCl salt (OAS), and O-acetyl-L-Tyrosine (OAT) by employing a capillary tube method using Swiss Albino Rats as the test system.
Young 5-6 weeks old Swiss Albino rats weighing about 200 Gm were used in the following protocol. They were obtained from an established animal supplier.
1. Dose Strength: 10, 20, 50 and 100 mg/kg of OAS and OAT
3. Route of Administration: Single exposure by oral gavage. 4. No. of animals per group: 5
Experimental procedure: The rats were fasted for 18-20 hours before dosing. A Syringe attached to a 16 gauge blunt tipped canula was used for this purpose. Two hours after dosing, the animals were provided with feed. 24 hours (±10 minutes) after the administration of the drug, blood samples were collected (0.2 ml approx) in capillary tubes. Animals were anaesthetized by mild ether inhalation by keeping a cotton swab soaked in ether near the nostrils of the animal. Blood was collected from the orbital sinus onto the capillary tube. […] For the confirmation of clotting, clotting as checked 30 seconds after the last observed clotting. An increase in clotting time compared to vehicle is an index of inhibition of platelet aggregation.
[…] With OAS, only one clotting time measurement, at 2 hours post dosing, was performed.
In FIG. 1, the clotting time in minutes was plotted against Log of the dose in mg/kg, each point being an average of clotting time obtained in 5 rats. A value of zero was assigned to vehicle control (zero dose). […] (AceTyro=O-Acetyl-L-Tyrosine and AceSer=O-Acetyl-L-Serine HCl).

[5] = Hygroscopicity and handling stability of salts and zwitterions; assay type: physicochemical
Description: Salts of compound O-Acetyl-(L)-Serine-O—(O-Acetyl)-L-Serine with various acids, including HCl, MeSO3H and tartaric acid, were prepared. […] The salt with tartaric acid was unstable and produced the zwitterion son attempted recrystallization from water/acetonitrile. The zwitterions of all three compounds were the most convenient forms (non-hygroscopic) for preparation. If needed, salts are prepared in situ during the formulation process.
as §5, §2

[6] = single human volunteer, 136 lbs, 600 mg
[7] = Group-2, individual rats, likely 10 mg/kg
[8] = Group-3, individual rats, likely 20 mg/kg
[9] = Group-4, individual rats, likely 50 mg/kg
[10] = Group-5, individual rats, likely 100 mg/kg
[11] = 8% acetonitrile/92% aqueous 0.05 mol buffer of KH2PO4 (pH 5)

CC(=O)OC[C@H](N)C(=O)NC(Cc1ccc(OC(C)=O)cc1)C(=O)O (stereo partly shown) [Ex 5, O-acetyl-(L)-serine-O-acetyl-(L)-tyrosine] (H-Ser(Ac)-[ξY](Ac)-OH)
Anti platelet activity (blood clotting time, FIG. 3) (platelet aggregation [1]; [6]): significant anti platelet activity | Period of significant anti platelet activity (platelet aggregation [1]; [6]): 200 h | HPLC purity, same sample analyzed at 15 C ([2]; temperature of analysis 15 C): 99% | HPLC purity, same sample analyzed at 40 C [2]: 97% | Stability in solutions during isolation, purification and analyses (qualitative) [3]: comparable stability of relative to Compound F | O, N-shift by-product formed after 26 hours ([3]; D2O solution (NMR sample)): about 3.4% | Decomposition in a solid state after 5 days of storage at 25 C ([3]; batch B, freshly dissolved material, NMR): a trace of the signal at 3.7 ppm (CH2OH group) was observed | O, N-shift impurity after 5 days ([3]; same NMR sample in D2O): 4.7%

CC(=O)OC[C@H](N)C(=O)O.Cl [OAS, O-acetyl-L-Serine HCl salt]
Clotting time (platelet aggregation [4]; [7]): 6 minutes (2×) and 8 minutes and 9 minutes (2×) | Clotting time (platelet aggregation [4]; [8]): 9 minutes (3×) and 8 minutes (2×) | Clotting time (platelet aggregation [4]; [9]): 19 min and 20 min and 16 min and 17 min and 15 min | Clotting time (platelet aggregation [4]; [10]): 26 minutes (2×) and 22 minutes and 30 minutes and 29 minutes | Significance of clotting times at all dose levels and between the dose levels (FIG. 1) (platelet aggregation [4]): statistically significant

CC(=O)OC[C@H](N)C(=O)N[C@H](C(=O)O)[C@@H](C)OC(C)=O [Ex 4, O-acetyl-(L)-serine-O-acetyl-(L)-threonine] (H-Ser(Ac)-Thr(Ac)-OH)
Variation of purity between HPLC analysis at 25 and 10° C. [2]: ≤ 20% | Difference in HPLC purity between analysis at 25 C and 10 C ([2]; same sample): 13-15% | HPLC purity, same sample analyzed at 10 C [2]: 93% | HPLC purity, same sample analyzed at 25 C ([2]; temperature of analysis 25 C): 78-80% | Stability in solutions during isolation, purification and analyses (qualitative) [3]: greatest instability in the whole series | Purity estimated by NMR before re-dissolution ([3]; zwitterion): 95-96% | Purity estimated by NMR after dissolution with DI water followed by freeze-drying ([3]; zwitterion, aqueous solution): 87-88%

CC(=O)OC[C@H](NC(=O)[C@@H](N)COC(C)=O)C(=O)O [Ex 3, O-acetyl-(L)-serine-O-acetyl-(L)-serine] (H-Ser(Ac)-Ser(Ac)-OH)
Hygroscopicity of salts ([5]; salts with HCl, MeSO3H and tartaric acid): hygroscopic | Stability of the salt with tartaric acid on attempted recrystallization ([5]; water/acetonitrile, produced the zwitterion): unstable

CC(=O)Oc1ccc(C[C@H](N)C(=O)O)cc1 [OAT, O-acetyl-L-Tyrosine]
Whole blood clotting time (platelet aggregation [1]; Vol 1 (90 Kg), 1000 mg once, Time 8): 6.5 min | Whole blood clotting time (platelet aggregation [1]; Vol 1 (90 Kg), 1000 mg once, Time 12): 8.5 min | Whole blood clotting time (platelet aggregation [1]; Vol 1 (90 Kg), 1000 mg once, Time 24): 8 min | Whole blood clotting time (platelet aggregation [1]; Vol 1 (90 Kg), 1000 mg once, Time 48): 7.5 min | Sustained Increase % in clotting time (platelet aggregation [1]; Vol 1, 1000 mg, at 48 hours after initial dose, listed as O-Acetyl Tyrosine): 25% | Max % Increase in clotting time (platelet aggregation [1]; Vol 1, 1000 mg): 42% | Whole blood clotting time (platelet aggregation [1]; Vol 2 (60 Kg), 350 mg once, Time 2): 5.5 min | Whole blood clotting time (platelet aggregation [1]; Vol 2 (60 Kg), 350 mg once, Time 5): 6 min | Whole blood clotting time (platelet aggregation [1]; Vol 2 (60 Kg), 350 mg once, Time 11): 6.75 min | Whole blood clotting time (platelet aggregation [1]; Vol 2 (60 Kg), 350 mg once, Time 22.5): 6.5 min | Sustained Increase % in clotting time (platelet aggregation [1]; Vol 2, 350 mg, last time point): 18% | Max % Increase in clotting time (platelet aggregation [1]; Vol 2, 350 mg, listed as O-Acetyl Tyrosine): 23% | Time for which increase in clotting time was sustained (platelet aggregation [1]; Volunteer 1, 1000 mg): at least 48 hours | Dose dependence of increase in clotting time (platelet aggregation [1]; two human volunteers, 1000 mg and 350 mg): dose dependent increase in clotting time | Side effects or toxic reactions reported by volunteers (platelet aggregation [1]; two human volunteers, single dose 1000 mg or 350 mg): Neither volunteer reported any unusual side effects or toxic reactions | Clotting time in minutes, After 4 hrs of administration (platelet aggregation [4]; Group-2, individual rats, group dose not given (doses 10, 20, 50, 100 mg/kg)): 8 minutes (2×) and 9 minutes (2×) and 10 minutes | Clotting time in minutes, After 24 hrs of administration (platelet aggregation [4]; [7]): 8 minutes (2×) and 9 minutes (2×) and 7 minutes | Clotting time in minutes, After 4 hrs of administration (platelet aggregation [4]; [8]): 9 minutes (2×) and 10 minutes (2×) and 15 minutes | Clotting time in minutes, After 24 hrs of administration (platelet aggregation [4]; [8]): 9 minutes and 10 minutes (2×) and 8 minutes and 11 minutes | Clotting time in minutes, After 4 hrs of administration (platelet aggregation [4]; [9]): 18 minutes and 19 minutes (2×) and 17 minutes (2×) | Clotting time in minutes, After 24 hrs of administration (platelet aggregation [4]; [9]): 14 minutes (3×) and 16 minutes (2×) | Clotting time in minutes, After 4 hrs of administration (platelet aggregation [4]; [10]): 21 minutes (2×) and 26 minutes and 29 minutes and 25 minutes | Clotting time in minutes, After 24 hrs of administration (platelet aggregation [4]; [10]): 19 min and 23 min and 22 min and 25 min and 24 min | Significance of clotting times at all dose levels and between the dose levels (FIG. 1) (platelet aggregation [4]): statistically significant

CC(=O)OCC(NC(=O)[C@@H](N)COC(C)=O)C(=O)O (stereo partly shown) [Ex 3, O-acetyl-(L)-serine-O-acetyl-(L)-serine] (H-Ser(Ac)-[ξS](Ac)-OH)
HPLC purity after 5 days after dissolution [2, 11]: 95.7% | HPLC purity in solution before storage [2, 11]: 97.3% | HPLC purity, same sample analyzed at 10 C [2]: 99.4% | HPLC purity, same sample analyzed at 40 C [2]: 97.3% | Stability in solutions during isolation, purification and analyses (qualitative) [3]: Certain instability | NMR purity of the fresh prepared sample ([3]; D2O with 1 drop of DCl): about 95% | NMR sample after 4 days at room temperature ([3]; D2O with 1 drop of DCl, three sets of signals found): severe decomposition | Stability in an aqueous solution as a salt of tartaric acid ([5]; compared with D2O/DCl sample): much greater | By-product on recrystallization from aqueous 40% EtOH ([5]; zwitterion, heating at 70 C for approximately 20 minutes, mother liquor): Significant accumulation of the O, N-acetyl shift's by-product
